The values below come from paper PMC2248166, “Quantitative peptide binding motifs for 19 human and mouse MHC class I molecules derived using positional scanning combinatorial peptide libraries” (Immunome Research, 2008).

Among the targets are HLA B*5802 (Homo sapiens, UniProt P01889, A329T/C349S/D201E/D98Y/E176V/E187L/E204Q/E69T/G107R/I218V/I90N/K202T/L105A/N104I/N87E/Q89R/Q94S/R106L/R155S/R180L/R86G/S101N/S121W/S35A/S48A/V127L/V306I/V36M/Y140S/Y91M); HLA B*5401 (Homo sapiens, UniProt P01889, A329T/C349S/D138N/D201E/E176V/E187T/E204Q/E69G/I76V/K202T/L119W/R155S/R180L/S121T/S35A/S48A/V127L/V306I/V36M/Y140L); HLA B*5801 (Homo sapiens, UniProt P01889, A329T/C349S/D201E/D98Y/E176V/E187L/E204Q/E69T/G107R/I218V/I90N/K202T/L105A/L119I/N104I/N87E/Q89R/Q94S/R106L/R155S/R180L/R86G/S101N/S121R/S35A/S48A/T118I/V127L/V306I/V36M/Y140S/Y91M); HLA B*5101 (Homo sapiens, UniProt P01889, A329T/A93T/A95T/C349S/D138N/D201E/D98Y/E187L/E204Q/E69T/G107R/I218V/K202T/L105A/L119W/N104I/Q94N/R106L/R155S/R180L/S101N/S121T/S35A/S48A/V306I/V36M/Y195H/Y91F); H-2 K^d (Mus musculus, UniProt P01902); HLA B*5301 (Homo sapiens, UniProt P01889, A329T/A93T/A95T/C349S/D201E/D98Y/E176V/E187L/E204Q/E69T/G107R/I218V/K202T/L105A/L119I/N104I/Q94N/R106L/R155S/R180L/S101N/S121R/S35A/S48A/T118I/V127L/V306I/V36M/Y140S/Y91F); HLA B*3501 (Homo sapiens, UniProt P01889, A329T/A93T/A95T/C349S/D201E/D98Y/E176V/E187L/E204Q/E69T/I218V/K202T/L119I/Q94N/R155S/R180L/S121R/S35A/S48A/T118I/V127L/V306I/V36M/Y140S/Y91F); H-2 D^b (Mus musculus, UniProt P01899); H-2 D^d (Mus musculus, UniProt P01900); H-2 K^k (Mus musculus, UniProt P04223); HLA A*6802 (Homo sapiens, UniProt P04439, A269V/D140Y/D185E/E176V/E277Q/E87N/F33Y/G231S/I121R/I166T/I218V/L180W/L300P/L318F/N151K/P208A/P217A/Q86R/R138H/R169H/S129P/T345S/V36M).

Holding throughout (type): binding
The next assay addresses HLA A*3001 (Homo sapiens, UniProt P04439, D140H/D185E/E176W/F33S/G80R/H175R/K168Q/R138E/R41S). Put plainly: biochemical.
For the next assay, the target named is HLA B*1503 (Homo sapiens, UniProt P01889, A329T/A93T/A95T/C349S/D201E/D98Y/E187L/E204Q/K202T/N87E/Q94N/R155S/R180L/S121R/S35A/V306I/V36M/Y140S/Y91S). The assay can be described thus: biochemical.
A further assay concerns the target HLA B*0801 (Homo sapiens, UniProt P01889, A93T/A95T/D138N/E176V/E187T/K202T/Q94N/R180D/S35A/V36M/Y33D/Y91F). Put plainly: biochemical.
Another assay has as its target HLA B*1501 (Homo sapiens, UniProt P01889, A329T/A93T/A95T/C349S/D201E/D98Y/E187L/E204Q/E69M/E70A/K202T/N87E/Q94N/R155S/R180W/S121R/S35A/S48A/V306I/V36M/Y140S/Y91S). Put plainly: biochemical.
The next assay addresses HLA A*3201 (Homo sapiens, UniProt P04439, A270S/D101S/D185E/E176V/E277Q/F133L/G103R/G107R/G231S/H175R/I121M/I218V/I322F/K168Q/L105A/L300P/L318F/M331R/P208A/P217A/Q94H/R106L/R138Q/S129P/T104I/T323A/T345S/V100E/V321M/V358M). The assay can be described thus: biochemical.

Sequence of H-2 D^d (P01900 whole entry, looked up): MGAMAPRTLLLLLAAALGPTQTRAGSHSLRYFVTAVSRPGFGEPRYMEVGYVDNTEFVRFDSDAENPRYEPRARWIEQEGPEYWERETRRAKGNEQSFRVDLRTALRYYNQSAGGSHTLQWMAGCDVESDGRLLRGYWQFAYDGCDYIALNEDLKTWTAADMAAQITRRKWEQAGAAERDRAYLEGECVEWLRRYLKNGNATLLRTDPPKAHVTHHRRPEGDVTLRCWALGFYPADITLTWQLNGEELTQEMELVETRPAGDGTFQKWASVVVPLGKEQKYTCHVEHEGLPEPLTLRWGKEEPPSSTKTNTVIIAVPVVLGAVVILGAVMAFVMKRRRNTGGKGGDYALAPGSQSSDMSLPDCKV
Sequence of H-2 K^k (P01887 21-119): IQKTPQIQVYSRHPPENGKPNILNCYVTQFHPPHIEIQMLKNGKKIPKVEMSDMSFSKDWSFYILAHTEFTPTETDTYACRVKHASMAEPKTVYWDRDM
Sequence of H-2 K^k (P04223 22-369): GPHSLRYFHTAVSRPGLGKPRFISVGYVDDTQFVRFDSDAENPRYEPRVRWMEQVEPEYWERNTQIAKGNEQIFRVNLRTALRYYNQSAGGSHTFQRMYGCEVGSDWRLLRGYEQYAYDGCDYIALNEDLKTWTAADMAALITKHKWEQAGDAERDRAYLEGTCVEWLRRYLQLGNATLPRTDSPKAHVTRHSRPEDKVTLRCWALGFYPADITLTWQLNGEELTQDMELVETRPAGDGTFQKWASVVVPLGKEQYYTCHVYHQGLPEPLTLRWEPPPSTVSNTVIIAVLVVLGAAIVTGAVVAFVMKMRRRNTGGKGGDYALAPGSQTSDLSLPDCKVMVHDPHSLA
Sequence of H-2 K^d (P01887 21-119): as the sequence (P01887 21-119) above
Sequence of H-2 K^d (P01902 22-368): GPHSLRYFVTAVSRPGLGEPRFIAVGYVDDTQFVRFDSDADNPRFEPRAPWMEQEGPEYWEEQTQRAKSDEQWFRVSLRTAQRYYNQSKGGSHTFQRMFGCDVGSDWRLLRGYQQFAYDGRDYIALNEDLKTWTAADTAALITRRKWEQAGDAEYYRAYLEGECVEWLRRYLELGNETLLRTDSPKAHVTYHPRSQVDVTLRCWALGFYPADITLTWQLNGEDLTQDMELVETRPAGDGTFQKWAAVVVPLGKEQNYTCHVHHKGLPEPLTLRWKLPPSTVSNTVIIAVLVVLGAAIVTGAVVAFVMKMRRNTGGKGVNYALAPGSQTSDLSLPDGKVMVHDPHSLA
Sequence of H-2 D^b (P01887 21-119): as the sequence (P01887 21-119) above
Sequence of H-2 D^b (P01899 25-362): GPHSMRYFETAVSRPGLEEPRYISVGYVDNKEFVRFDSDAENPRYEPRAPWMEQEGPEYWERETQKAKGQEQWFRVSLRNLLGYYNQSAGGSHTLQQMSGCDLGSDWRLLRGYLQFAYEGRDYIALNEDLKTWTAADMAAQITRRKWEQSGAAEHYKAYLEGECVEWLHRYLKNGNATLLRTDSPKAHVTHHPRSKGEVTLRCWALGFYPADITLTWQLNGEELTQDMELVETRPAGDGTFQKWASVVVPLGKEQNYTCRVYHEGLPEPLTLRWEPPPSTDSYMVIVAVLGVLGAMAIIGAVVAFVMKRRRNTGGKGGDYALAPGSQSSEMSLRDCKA

Consider XXXXXLXXX [3064.0110], for which the “Normalized average relative binding affinity(ARB)” value on HLA B*5802 worked out at 0.31; at HLA B*5401 it was 0.21; at HLA B*5801, 0.49; on HLA A*3001, 0.28; on HLA B*5101 it was 0.55; on HLA B*1503, 0.37. Moreover, the “Normalized average relative binding affinity(ARB)” value stood at 0.34 on H-2 K^d; 0.18 at HLA B*5301; 0.061 at HLA B*0801; 0.12 at HLA B*1501; 0.29 on HLA B*3501; 0.64 at H-2 D^b. In addition, the “Normalized average relative binding affinity(ARB)” value on H-2 D^d came out at 0.54; at HLA A*3201, 0.33; on H-2 K^k, 0.25; on HLA A*6802, 0.16.

Take XXXXXMXXX [3064.0111]: the “Normalized average relative binding affinity(ARB)” value was determined as 0.24 on HLA B*5802; 0.43 on HLA B*5401; 0.41 on HLA B*5801; 0.18 at HLA A*3001; 0.52 at HLA B*5101; 0.43 at HLA B*1503. Further, the “Normalized average relative binding affinity(ARB)” value at H-2 K^d was 0.31; on HLA B*5301 it was 0.23; at HLA B*0801, 0.031; on HLA B*1501, 0.44; at HLA B*3501 it was 0.18; on H-2 D^b, 0.52. Also, the “Normalized average relative binding affinity(ARB)” value was found to be 0.48 at H-2 D^d, 0.44 at HLA A*3201, 0.36 at H-2 K^k and 0.14 on HLA A*6802.

Regarding XXXXXNXXX [3064.0112], the “Normalized average relative binding affinity(ARB)” value on HLA B*5802 worked out at 1.0; at HLA B*5401, 0.29; at HLA B*5801, 0.027; at HLA A*3001, 0.13; on HLA B*5101 it was 0.40; at HLA B*1503 it was 0.0067. Moreover, the “Normalized average relative binding affinity(ARB)” value on H-2 K^d was determined as 0.22; at HLA B*5301, 0.13; at HLA B*0801, 0.039; at HLA B*1501, 0.26; at HLA B*3501 it was 0.16; on H-2 D^b it was 0.56. The “Normalized average relative binding affinity(ARB)” value at H-2 D^d came out at 0.39; on HLA A*3201, 0.73; at H-2 K^k, 0.32; on HLA A*6802 it was 0.45.

XXXXXPXXX [3064.0113]: the “Normalized average relative binding affinity(ARB)” value was found to be 0.39 on HLA B*5802; 0.15 on HLA B*5401; 0.20 at HLA B*5801; 0.19 on HLA A*3001; 0.067 on HLA B*5101; 0.47 at HLA B*1503. Besides, the “Normalized average relative binding affinity(ARB)” value on H-2 K^d came out at 0.15; on HLA B*5301 it was 0.15; at HLA B*0801, 0.039; at HLA B*1501, 0.11; at HLA B*3501 it was 0.14; on H-2 D^b, 0.23. Moreover, the “Normalized average relative binding affinity(ARB)” value on H-2 D^d is recorded as 0.094; on HLA A*3201, 0.27; on H-2 K^k, 0.38; at HLA A*6802 it was 0.57.

For XXXXXQXXX [3064.0114], the “Normalized average relative binding affinity(ARB)” value on HLA B*5802 came to 0.46; on HLA B*5401, 0.11; at HLA B*5801, 0.57; at HLA A*3001 it was 0.21; on HLA B*5101 it was 0.39; on HLA B*1503 it was 0.53. Further, the “Normalized average relative binding affinity(ARB)” value is reported as 0.19 at H-2 K^d; 0.13 at HLA B*5301; 0.031 on HLA B*0801; 0.21 at HLA B*1501; 0.12 at HLA B*3501; 0.55 on H-2 D^b. Besides, the “Normalized average relative binding affinity(ARB)” value was determined as 0.51 on H-2 D^d, 0.15 at HLA A*3201, 0.12 on H-2 K^k and 0.085 at HLA A*6802.

Regarding XXXXXRXXX [3064.0115], the “Normalized average relative binding affinity(ARB)” value is on record as 0.36 on HLA B*5802; 0.11 on HLA B*5401; 0.25 at HLA B*5801; 0.21 on HLA A*3001; 0.27 at HLA B*5101; 0.51 on HLA B*1503. Besides, the “Normalized average relative binding affinity(ARB)” value on H-2 K^d is 1.0; on HLA B*5301, 0.095; on HLA B*0801, 0.15; at HLA B*1501, 0.13; at HLA B*3501 it was 0.088; on H-2 D^b, 0.50. Besides, the “Normalized average relative binding affinity(ARB)” value at H-2 D^d was 0.42; on HLA A*3201, 0.36; on H-2 K^k, 0.39; on HLA A*6802, 0.43.
